Data from patent publication US20050054629A1, “Compounds and methods of treating cell proliferative diseases” (priority 2002, published 2005).
Read-outs that look alike come from different tables or passages of the source.

Key:
H460 lung carcinoma = experiment: Cytotoxicity assay (MTT), 6 days; format: cell-based; conditions: Homo sapiens, NCI-H460, 144 h, 6 days of treatment, read-out: Toxicity 6d (IC 50, μM) H460
In short: (§1)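 MTT read-out at 550 nm after 6-day exposure to compound (0–50 μM, 1% DMSO). MTT 0.5 mg/ml in PBS, 3 h, 37° C; crystals solubilized in 100% DMSO. IC50 from surviving fraction; triplicates.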

MCF-7 breast carcinoma = experiment: Cytotoxicity assay (MTT), 6 days; format: cell-based; conditions: Homo sapiens, MCF7, 144 h, 6 days of treatment, read-out: Toxicity 6d (IC 50, μM) MCF7
In short: as §1

MCF10-A = experiment: Cytotoxicity assay (MTT), 6 days; format: cell-based; conditions: Homo sapiens, MCF-10A, 144 h, 6 days of treatment, read-out: Toxicity 6d (IC 50, μM) MCF10-A
In short: as §1

[1] = tested on: MDA-MB-231 breast carcinoma; experiment: Cytotoxicity assay (MTT), 6 days; format: cell-based; conditions: Homo sapiens, MDA-MB-231, 144 h, 6 days of treatment, read-out: Toxicity 6d (IC 50, μM) MDA231
In short: as §1

NIH3T3 mouse fibroblasts = experiment: Cytotoxicity assay (MTT), 6 days; format: cell-based; conditions: NIH3T3, 144 h, 6 days of treatment, read-out: Toxicity 6d (IC 50, μM) NIH3T3
In short: as §1

[2] = tested on: HCT116 colon adenocarcinoma; experiment: Cytotoxicity assay (MTT), 6 days; format: cell-based, human; conditions: 6 days of treatment, read-out: Toxicity 6d (IC 50, μM) HCT116
In short: as §1

MDA-MB-231 cells [3] = experiment: Matrigel invasion assay (Boyden chamber); format: cell-based, human; conditions: for Invasion: MDA-MB-231, Boyden chamber, matrigel
In short: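 MDA-MB-231 cells were pretreated overnight with compound (1, 10, 17.5, 25, 50 μM). 10^5 cells in serum-free 0.1% BSA medium with compound were placed on 8 μm membranes coated with Matrigel (125 μg/cm^2), with 10% FBS plus compound below. After 6 h at 37 °C, cells on the filter underside were Diff-Quick stained and counted.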

Ras = experiment: Ras-dependant signaling pathway analysis (reporter system); format: cell-based; design: key: −: no effect of the compound was observed; +: an effect of the compound was observed
In short: (§2)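 Ras and Rac signalling were measured with reporter systems. For colony formation, NIH3T3 cells were transfected with RasV12 or RacV12 plus neomycin plasmids, then grown 2-3 weeks in 400 μg/ml geneticin with compound at 1, 10, 17.5, 25 or 50 μM. Fuchsin-stained colonies of ≥50 cells were counted.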

Rac = experiment: Rac-dependant signaling pathway analysis (reporter system); format: cell-based; design: key: −: no effect of the compound was observed; +: an effect of the compound was observed
Experimental: The impact of the compounds on Ras and Rac signaling pathways was analysed with two reporter systems described by Imler (Nature 1988) and Lin (Science, 1995) respectively on one hand, and by a colony formation assay in the presence of constitutively activated Ras (RasV12) and Rac (RacV12) on the other hand. For this latter experiment, fifty percent confluent NIH3T3 cells in a 10 cm diameter petri dish were transfected with 0.5 μg pSV2-RasV12 or 0.5 μg pEXV RacV12 plasmids plus 100 ng of pSV2-neomycin plasmid using Lipofectamine-Plus reagent (Invitrogen) according to the manufacturer's instructions. Forty-eight hours later, cells were trypsinised, splitted to ⅓, and incubated in the presence of complete medium supplemented with 400 μg/ml geneticin (Invitrogen) and different doses of compound (1, 10, 17.5, 25 and 50 μM) until emerging resistant clones appear (2-3 weeks). The medium was renewed every 3 days. Colonies with a minimum of 50 cells were counted after staining with Fuschin 2%.

NIH3T3 cells = experiment: Colony formation assay with constitutively activated Ras (RasV12) and Rac (RacV12); format: cell-based, mouse; design: key to Colony formation: −: no effect of the compound was observed; +: an effect of the compound was observed
In short: as §2

NIH3T3 = experiment: Cytoskeleton analysis, actin staining (FITC-phalloidin); format: cell-based, mouse; conditions: for Cell architecture modification actin staining (R: ruffles; FC: focal complexes) NIH3T3: 24 h treatment; for concentration at which specific inhibition of membrane ruffles and increase in the number of stress fibers was observed: NIH3T3, actin staining
In short: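 Subconfluent cells on coverslips were exposed to compound at 1, 10, 17.5, 25 or 50 μM, or to vehicle, for 24 h. They were then formaldehyde-fixed, Triton-permeabilized and blocked. Actin was stained with 0.5 μg/ml FITC-phalloidin for 1 h and imaged by inverted fluorescence microscopy.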

MDA-MB-231 cells [4] = experiment: Migration assay (Boyden chamber, non-coated filters); format: cell-based, human; conditions: for Migration: MDA-MB-231, Boyden chamber
In short: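 MDA-MB-231 cells were pretreated overnight with compound (1, 10, 17.5, 25 and 50 μM), then 10^5 cells placed in the upper chamber in serum-free medium with 0.1% BSA plus compound; lower chamber held 10% FBS plus compound as chemoattractant. After 6 hours at 37° C on non-coated filters, migrated underside cells were stained and counted by microscopy.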

Row | Compound | IC50 (H460 lung carcinoma) [µM] | IC50 (MCF-7 breast carcinoma) [µM] | IC50 (MCF10-A) [µM] | IC50 [1] [µM] | IC50 (NIH3T3 mouse fibroblasts) [µM] | IC50 [2] [µM] | IC50 ([2]; Homo sapiens, HCT-116, 144 h) [µM] | concentration giving significant inhibition of invasive properties of MDA-MB-231 cells (MDA-MB-231 cells [3]) [µM] | Invasion (MDA-MB-231 cells [3]) | Small GTPases activities Ras (Ras) | Small GTPases activities Rac (Rac) | Colony formation (NIH3T3 cells) | Ras-dependent neoR clones formation (NIH3T3 cells; NIH3T3 transfected with RasVal12) | Cell architecture modification actin staining (R: ruffles; FC: focal complexes) NIH3T3 (NIH3T3) | concentration at which specific inhibition of membrane ruffles and increase in the number of stress fibers was observed (NIH3T3) [µM] | concentration at which inhibition of serum-induced migration was observed (MDA-MB-231 cells [4]) [µM] | Migration (MDA-MB-231 cells [4]) | concentration giving an increase in invasive properties of MDA-MB-231 cells (MDA-MB-231 cells [3]) [µM]
1 | CCCc1c(OCCCCCOc2coc(CO)cc2=O)ccc(Cl)c1Cl [EH22900, 5-[5-(3,4-Dichloro-2-propylphenyloxy)pentyloxy]-2-(hydroxymethyl)-4H-pyran-4-one] | 15 | 50 | > 50 | 30 | 30 | 10 | ≤ 15 | 17.5 | Decrease | − | − | + | inhibited | R-, FC+ | 10 | 25 | inhibition | 
2 | C/C=C/c1oc(CO)cc(=O)c1OCCCCCOc1ccc(Cl)c(Cl)c1CCC [EH31101, (E)-3-[5-(3,4-Dichloro-2-propylphenyloxy)pentyloxy]-6-(hydroxymethyl)-2-(propen-1-yl)-4H-pyran-4-one] | 25 | 25 | 35 | 25 | > 50 |  | 30 |  | Increase | − | − | − |  | R-, FC+ | 50 | 10 | no effect | 10
